Test results as given in patent publication US11541006B2, “Aqueous formulation for insoluble drugs” (priority 2018, dated 2023).
≈ marks a conversion by molar mass, not a printed value. Structures can show the parent of a compound that is named as a salt.

What was measured:
[1] = Solubility of insoluble drugs in F96 LMBW vehicle (Example 4); assay type: physicochemical; conditions: for solubility: aqueous with cosolvent or surfactant or cyclodextrin, thermodynamic from solid
From the text: Twenty-two (22) insoluble drugs having a wide variety of chemical structures (including chemical element, small molecule, peptide and protein), properties and biological activities (including drugs, diagnostic agents and nutritional supplement agents) were selected and tested for solubility in F96 LMBW vehicle as follows: • 1. Measure out a fixed amount of F96 vehicle. • 2. Add a known amount of an insoluble drug substance. • 3. Mix to dissolve the drug substance. • 4. […] Record the maximum amount of the insoluble drug substance that the F96 LMBW vehicle could dissolve and use this value to calculate the drug's solubility in the F96 LMBW vehicle.

[2] = cited from earlier work; for Solubility according to USP definition: in water
[3] = Solubility of insoluble drugs in 16% SBECD aqueous solution (Example 27); conditions: for solubility: 16% SBECD aqueous solution, aqueous with cosolvent or surfactant or cyclodextrin, thermodynamic from solid; for Measured solubility in 16% SBECD: 16% sulfobutyl ether beta cyclodextrin aqueous solution
From the text: Add a known amount of an insoluble drug substance. • 3. Mix to dissolve the drug substance. • 4.

[4] = Voriconazole solubility in LMBW versus binary/ternary mixtures of L, M, B and alcohol (Example 2); assay type: physicochemical; conditions: thermodynamic from solid
Experimental: For this study, voriconazole was used as the insoluble drug.
To determine solubility in each combination, voriconazole was added to each combination and mixed until it no longer would dissolve. For each mixture, the pH was adjusted to pH 4.5-5, equilibrated at room temperature, and then passed through a 0.2-micron filter. The filtrate was analyzed by HPLC for voriconazole concentration. Each HPLC-determined voriconazole concentration is noted as a “Voriconazole solubility” in the tables below.

[5] = Voriconazole stability versus pH and predicted F96 shelf life T90 (separate study); assay type: physicochemical
physchem = conditions: for Appearance of the undiluted solutions / Appearance of the solutions after being diluted in an IV infusion fluid: RT, 24 hours; for Appearance of the solutions after being diluted in an IV infusion fluid: diluted to about 0.5 to 5 mg/mL
Experimental: Different amounts of voriconazole (20 to 60 mg/mL) were first dissolved in F145V and subsequently diluted in an IV infusion fluid, such as normal saline (NS), 5% dextrose in water (D5W), water for injection (WFI), or Lactated Ringers solution, to a final voriconazole concentration of about 0.5 to 5 mg/mL.

[6] = Solubility of disease-related insoluble solids in LMBW vehicle and PBS (Example 29); assay type: physicochemical; conditions: for solubility: thermodynamic from solid
From the text: These solids have very low solubility in the body fluids and therefore they have a high tendency to precipitate and to form the undesirable solid deposits in vivo. […] Weigh out a fixed amount of a solid of interest, • 2. […] Mix to dissolve the solid, • 4. If the solid has completely dissolved, add more until it is no longer dissolving in the vehicle • 5.

Cc1ccc(-c2cc(C(F)(F)F)nn2-c2ccc(S(N)(=O)=O)cc2)cc1 [Celecoxib]
solubility [1]: 7300 µg/mL (≈ 19.1 mM) | Solubility according to USP definition [2]: Very poorly | Reported solubility in water ([2]; water): 0.001-0.0001 mg/mL | solubility [3]: 1030 µg/mL (≈ 2.7 mM)

N[C@@H](Cc1ccc(O)c(O)c1)C(=O)O [Levodopa]
solubility [1]: 10000 µg/mL (≈ 50.7 mM) | Solubility according to USP definition [2]: Slightly soluble (100-1000) | solubility [3]: 2130 µg/mL (≈ 10.8 mM)

C[C@@H](O[C@H]1OCCN(Cc2n[nH]c(=O)[nH]2)[C@H]1c1ccc(F)cc1)c1cc(C(F)(F)F)cc(C(F)(F)F)c1 [Aprepitant]
solubility [1]: 12700 µg/mL (≈ 23.8 mM) | Solubility according to USP definition [2]: Practically | Reported solubility in water ([2]; water): <0.0001 mg/mL | solubility [3]: 150 µg/mL (≈ 0.281 mM)

CC(C)c1cccc(C(C)C)c1O [Propofol]
solubility [1]: 50800 µg/mL (≈ 285 mM) | Solubility according to USP definition [2]: Insoluble | Reported solubility in water ([2]; water): <0.0001 mg/mL | solubility [3]: 56600 µg/mL (≈ 317 mM)

CCc1c2c(nc3ccc(OC(=O)N4CCC(N5CCCCC5)CC4)cc13)-c1cc3c(c(=O)n1C2)COC(=O)[C@]3(O)CC [Irinotecan HCl]
solubility [1]: 20400 µg/mL | Solubility according to USP definition [2]: Insoluble | Reported solubility in water ([2]; water): <0.0001 mg/mL | solubility [3]: 2120 µg/mL

CCC(C)n1ncn(-c2ccc(N3CCN(c4ccc(OCC5COC(Cn6cncn6)(c6ccc(Cl)cc6Cl)O5)cc4)CC3)cc2)c1=O (centres unmarked) [Intraconazole]
Measured solubility in F96 LMBW Vehicle ([1]; stepwise addition until no longer dissolving): 500 to 1000 µg/mL | Solubility according to USP definition [2]: Insoluble | Reported solubility in water ([2]; water): <0.0001 mg/mL | Measured solubility in 16% SBECD [3]: 170 µg/mL

C[C@@H](c1ncncc1F)[C@](O)(Cn1cncn1)c1ccc(F)cc1F [Voriconazole]
solubility ([4]; LMBW (lecithin, MCT, bile acid, alcohols in water), pH 4.5, aqueous with cosolvent or surfactant or cyclodextrin): 29400 µg/mL | solubility ([4]; MCT and alcohols in water), aqueous with cosolvent or surfactant or cyclodextrin, vehicle % wt in water: glycocholic acid 10.6, MCT 15, benzyl alcohol 4.5, ethanol 6.5, emulsion, opaque, pH 4.5-5, RT): 8000 µg/mL | solubility ([4]; MCT and alcohols in water), aqueous with cosolvent or surfactant or cyclodextrin, vehicle % wt in water: lecithin 25, MCT 15, benzyl alcohol 4.5, ethanol 6.5, emulsion, opaque, pH 4.5-5, RT): 19800 µg/mL | solubility ([4]; alcohol solution (benzyl alcohol and ethanol in water), pH 4.5, aqueous with cosolvent or surfactant or cyclodextrin): 1100 µg/mL | solubility ([4]; aqueous with cosolvent or surfactant or cyclodextrin, vehicle % wt in water: MCT 15, emulsion, opaque, pH 4.5-5, RT): 500 µg/mL | solubility ([4]; aqueous with cosolvent or surfactant or cyclodextrin, vehicle % wt in water: glycocholic acid 10.6, micelle solution, hazy, pH 4.5-5, RT): 2100 µg/mL | solubility ([4]; aqueous with cosolvent or surfactant or cyclodextrin, vehicle % wt in water: lecithin 25, glycocholic acid 10.6, benzyl alcohol 4.5, ethanol 6.5, micelle solution, hazy, pH 4.5-5, RT): 8000 µg/mL | solubility ([4]; aqueous with cosolvent or surfactant or cyclodextrin, vehicle % wt in water: lecithin 25, liposome, hazy, pH 4.5-5, RT): 800 µg/mL | solubility ([4]; emulsion (MCT and alcohols in water), aqueous with cosolvent or surfactant or cyclodextrin, vehicle % wt in water: MCT 15, benzyl alcohol 4.5, ethanol 6.5, emulsion, opaque, pH 4.5-5, RT): 19400 µg/mL | solubility ([4]; emulsion (glycocholic acid and MCT in water), aqueous with cosolvent or surfactant or cyclodextrin, vehicle % wt in water: glycocholic acid 10.6, MCT 15, emulsion, opaque, pH 4.5-5, RT): 3100 µg/mL | solubility ([4]; emulsion (lecithin and MCT in water), aqueous with cosolvent or surfactant or cyclodextrin, vehicle % wt in water: lecithin 25, MCT 15, emulsion, opaque, pH 4.5-5, RT): 1400 µg/mL | solubility ([4]; liposome (lecithin and alcohols in water), aqueous with cosolvent or surfactant or cyclodextrin, vehicle % wt in water: lecithin 25, benzyl alcohol 4.5, ethanol 6.5, liposome, hazy, pH 4.5-5, RT): 13700 µg/mL | solubility ([4]; micelle solution (glycocholic acid and alcohols in water), aqueous with cosolvent or surfactant or cyclodextrin, vehicle % wt in water: glycocholic acid 10.6, benzyl alcohol 4.5, ethanol 6.5, micelle solution, hazy, pH 4.5-5, RT): 7600 µg/mL | solubility ([4]; micelle solution (lecithin and glycocholic acid in water), aqueous with cosolvent or surfactant or cyclodextrin, vehicle % wt in water: lecithin 25, glycocholic acid 10.6, micelle solution, hazy, pH 4.5-5, RT): 7100 µg/mL | pH at which most stable in an aqueous solution [5]: ~4 | solubility [1]: 20000 µg/mL (≈ 57.3 mM) | Solubility increase over water (physchem): 86 folds | Appearance of the undiluted solutions (physchem; 20 mg/mL added to F145V): Clear & one-phase solution | Appearance of the solutions after being diluted in an IV infusion fluid (physchem; 20 mg/mL in F145V): Clear & one-phase solution | Appearance of the undiluted solutions (physchem; 30 mg/mL added to F145V): Clear & one-phase solution | Appearance of the solutions after being diluted in an IV infusion fluid (physchem; 30 mg/mL in F145V): Clear & one-phase solution | Appearance of the undiluted solutions (physchem; 40 mg/mL added to F145V): Clear & one-phase solution | Appearance of the solutions after being diluted in an IV infusion fluid (physchem; 40 mg/mL in F145V): Slight precipitation | Appearance of the undiluted solutions (physchem; 50 mg/mL added to F145V): Clear & one-phase solution | Appearance of the solutions after being diluted in an IV infusion fluid (physchem; 50 mg/mL in F145V): Major precipitation | Appearance of the undiluted solutions (physchem; 60 mg/mL added to F145V): Clear & one-phase solution | Appearance of the solutions after being diluted in an IV infusion fluid (physchem; 60 mg/mL in F145V): Major precipitation | solubility at 24 h (physchem; aqueous with cosolvent or surfactant or cyclodextrin): ≥ 60000 µg/mL | Solubility according to USP definition [2]: Insoluble | Solubility in water ([2]; water, 25° C.): about 0.7 mg/mL | Reported solubility in water ([2]; water): 0.7 mg/mL | solubility [3]: 8600 µg/mL (≈ 24.6 mM)

CC[C@H]1OC(=O)[C@H](C)[C@@H](O[C@H]2C[C@@](C)(OC)[C@@H](O)[C@H](C)O2)[C@H](C)[C@@H](O[C@@H]2O[C@H](C)C[C@H](N(C)C)[C@H]2O)[C@](C)(OC)C[C@@H](C)C(=O)[C@H](C)[C@@H](O)[C@]1(C)O [Clarithromycin]
solubility [1]: 9100 µg/mL (≈ 12.2 mM) | Solubility according to USP definition [2]: Practically | Reported solubility in water ([2]; water): <0.0001 mg/mL | solubility [3]: 1710 µg/mL (≈ 2.29 mM)

Oc1ccc(C=Cc2cc(O)cc(O)c2)cc1 [Resveratrol]
solubility [1]: 9000 µg/mL (≈ 39.4 mM) | Solubility according to USP definition [2]: Insoluble | Reported solubility in water ([2]; water): <0.0001 mg/mL | solubility [3]: 4850 µg/mL (≈ 21.2 mM)

CC(C)CCC[C@@H](C)[C@H]1CC[C@H]2[C@@H]3CC=C4C[C@@H](O)CC[C@]4(C)[C@H]3CC[C@]12C [Cholesterol]
solubility ([6]; F96 LMBW vehicle, aqueous with cosolvent or surfactant or cyclodextrin, vehicle at pH 7): 25000 µg/mL (≈ 64.7 mM) | solubility ([6]; phosphate buffered saline, aqueous buffer, read-out: Solubility in PBS): 50 µg/mL (≈ 0.129 mM)

Casein
Solubility according to USP definition [2]: Very poorly | Reported solubility in water ([2]; water): 0.001-0.0001 mg/mL | Measured solubility in 16% SBECD [3]: 150 µg/mL

CC(C)Cc1ccc(C(C)C(=O)O)cc1 (centres unmarked) [Ibuprofen]
solubility [1]: 53100 µg/mL (≈ 257 mM) | Solubility according to USP definition [2]: Sparingly | solubility [3]: 3580 µg/mL (≈ 17.4 mM)

CC(=O)[C@H]1CC[C@H]2[C@@H]3CCC4=CC(=O)CC[C@]4(C)[C@H]3CC[C@]12C [Progesterone]
solubility [1]: 12000 µg/mL (≈ 38.2 mM) | Solubility according to USP definition [2]: Sparingly | Reported solubility in water ([2]; water): 0.017 mg/mL | solubility [3]: 4060 µg/mL (≈ 12.9 mM)

CC1=C(C/C=C(\C)CCC[C@H](C)CCC[C@H](C)CCCC(C)C)C(=O)c2ccccc2C1=O [Phytonadione]
solubility [1]: 28200 µg/mL (≈ 62.6 mM) | Solubility according to USP definition [2]: Insoluble | Reported solubility in water ([2]; water): <0.0001 mg/mL | solubility [3]: 150 µg/mL (≈ 0.333 mM)

O=c1[nH]c(=O)c2[nH]c([O-])nc2[nH]1.[Na+] [Mono sodium urate]
Solubility in PBS ([6]; phosphate buffered saline): <1 µg/mL | Measured solubility in F96 LMBW Vehicle ([6]; vehicle at pH 7): 50 µg/mL

CC(=O)O[C@H]1C(=O)[C@@]2(C)[C@H]([C@H](OC(=O)c3ccccc3)[C@]3(O)C[C@H](OC(=O)[C@H](O)[C@@H](NC(=O)c4ccccc4)c4ccccc4)C(C)=C1C3(C)C)[C@]1(OC(C)=O)CO[C@@H]1C[C@@H]2O [Paclitaxel]
Solubility according to USP definition [2]: Insoluble | Reported solubility in water ([2]; water): <0.0001 mg/mL

CC[C@@]1(O)C(=O)OCc2c1cc1n(c2=O)Cc2cc3ccccc3nc2-1 [Camptothecin]
solubility [1]: 500 to 1000 µg/mL (≈ 1.44 to 2.87 mM) | Solubility according to USP definition [2]: Insoluble | Reported solubility in water ([2]; water): <0.0001 mg/mL | solubility [3]: 60 µg/mL (≈ 0.172 mM)

CC[C@@H]([C@H](C)O)n1ncn(-c2ccc(N3CCN(c4ccc(OC[C@@H]5CO[C@@](Cn6cncn6)(c6ccc(F)cc6F)C5)cc4)CC3)cc2)c1=O [Posaconazole]
solubility [1]: 500 µg/mL (≈ 0.713 mM) | Solubility according to USP definition [2]: Insoluble | Reported solubility in water ([2]; water): <0.0001 mg/mL | solubility [3]: 270 µg/mL (≈ 0.385 mM)

C[C@@H]1[C@H](O)[C@@H](C)/C=C/C=C/C=C/C=C/C=C/C=C/C=C/[C@H](O[C@@H]2O[C@H](C)[C@@H](O)[C@H](N)[C@@H]2O)C[C@@H]2O[C@](O)(C[C@@H](O)C[C@@H](O)[C@H](O)CC[C@@H](O)C[C@@H](O)CC(=O)O[C@H]1C)C[C@H](O)[C@H]2C(=O)O [Amphotericin]
solubility [1]: 2400 µg/mL (≈ 2.6 mM) | Solubility according to USP definition [2]: Insoluble | Reported solubility in water ([2]; water): <0.0001 mg/mL | solubility [3]: 70 µg/mL (≈ 0.0758 mM)
